According to US10039753B2, “Imidazo[4,5-c]quinoline and imidazo[4,5-c][1,5]naphthyridine derivatives as LRRK2 inhibitors” (Pfizer Inc., priority 2015, dated 2018):
Structures can show the parent of a compound that is named as a salt.

Experiments:
[1] = target: T1, GST-tagged truncated LRRK2 (Homo sapiens, UniProt Q5S007); experiment: LRRK2 Assay, Format 1 (Lantha Screen), WT; type: biochemical; conditions: Format 1, wild-type LRRK2; geometric mean of 2-4 determinations unless footnoted (a: ≥5 determinations; b: single determination; c: determined on trifluoroacetate salt)
T1 construct: GST-tagged truncated LRRK2 from Invitrogen (Cat # PV4874); GST; purchased Invitrogen PV4874
Method in brief: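 Kinase activity measured by TR-FRET: GST-tagged truncated LRRK2 (4 μg/mL working solution) reacted with fluorescein-labeled LRRKtide (ERM-based peptide) across a compound dose response for 2 h at room temperature. Reaction stopped with EDTA-containing detection buffer (20 mM Tris pH 7.6) holding 2 nM terbium anti-phospho-ERM antibody.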

mutant G2019S LRRK2 = mutant G2019S LRRK2 (Homo sapiens, UniProt Q5S007, G2019S); experiment: LRRK2 Assay, Format 1 (Lantha Screen), G2019S mutant
Chain of mutant G2019S LRRK2 (Q5S007 970-2527 G2019S limits assumed): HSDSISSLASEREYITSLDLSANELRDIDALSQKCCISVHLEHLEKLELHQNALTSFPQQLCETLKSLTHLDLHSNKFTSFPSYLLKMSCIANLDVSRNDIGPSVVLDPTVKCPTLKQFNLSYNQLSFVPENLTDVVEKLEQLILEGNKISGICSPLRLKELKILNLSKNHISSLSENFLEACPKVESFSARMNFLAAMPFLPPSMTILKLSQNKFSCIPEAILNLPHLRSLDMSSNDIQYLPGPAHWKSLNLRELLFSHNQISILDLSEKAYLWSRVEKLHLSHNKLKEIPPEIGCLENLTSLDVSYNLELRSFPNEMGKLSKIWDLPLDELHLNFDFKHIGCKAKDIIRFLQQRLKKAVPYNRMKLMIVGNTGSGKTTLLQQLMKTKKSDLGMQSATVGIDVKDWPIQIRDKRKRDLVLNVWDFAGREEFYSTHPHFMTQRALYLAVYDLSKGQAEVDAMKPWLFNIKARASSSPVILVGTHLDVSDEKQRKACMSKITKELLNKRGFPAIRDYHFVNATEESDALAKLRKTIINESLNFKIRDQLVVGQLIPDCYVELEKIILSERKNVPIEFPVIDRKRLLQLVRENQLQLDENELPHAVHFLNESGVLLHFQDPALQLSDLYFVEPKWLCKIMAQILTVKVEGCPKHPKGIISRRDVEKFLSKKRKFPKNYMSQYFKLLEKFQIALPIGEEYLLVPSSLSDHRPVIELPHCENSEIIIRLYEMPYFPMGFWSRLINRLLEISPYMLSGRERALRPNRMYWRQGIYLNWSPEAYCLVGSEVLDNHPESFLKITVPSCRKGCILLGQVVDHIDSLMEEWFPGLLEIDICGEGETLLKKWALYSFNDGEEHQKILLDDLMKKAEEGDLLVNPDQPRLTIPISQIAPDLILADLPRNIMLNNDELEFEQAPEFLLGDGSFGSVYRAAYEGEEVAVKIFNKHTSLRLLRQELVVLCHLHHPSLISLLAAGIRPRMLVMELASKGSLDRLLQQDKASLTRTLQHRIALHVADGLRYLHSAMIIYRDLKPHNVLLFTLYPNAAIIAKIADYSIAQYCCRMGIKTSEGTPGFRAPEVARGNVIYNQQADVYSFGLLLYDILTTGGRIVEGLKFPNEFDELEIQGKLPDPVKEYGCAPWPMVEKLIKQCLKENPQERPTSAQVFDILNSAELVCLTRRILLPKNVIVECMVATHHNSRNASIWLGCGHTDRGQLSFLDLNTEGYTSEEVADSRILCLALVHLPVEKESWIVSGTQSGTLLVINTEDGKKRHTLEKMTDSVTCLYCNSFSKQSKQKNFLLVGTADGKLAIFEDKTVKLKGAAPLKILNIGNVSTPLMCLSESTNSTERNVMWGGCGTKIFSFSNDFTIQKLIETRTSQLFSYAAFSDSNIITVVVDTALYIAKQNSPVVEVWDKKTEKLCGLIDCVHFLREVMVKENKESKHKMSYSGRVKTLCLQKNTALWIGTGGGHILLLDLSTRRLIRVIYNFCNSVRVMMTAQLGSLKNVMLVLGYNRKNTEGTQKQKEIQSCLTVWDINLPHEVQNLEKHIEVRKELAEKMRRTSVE
Experimental: LRRK2 kinase activity was measured using Lantha Screen technology from Invitrogen. GST-tagged truncated LRRK2 from Invitrogen (Cat # PV4874) was incubated with a fluorescein-labeled peptide substrate based upon ezrin/radixin/moesin (ERM), also known as LRRKtide (Invitrogen cat # PR8976A), in the presence of a dose response of compound. Upon completion, the assay was stopped and detected with a terbium labeled anti-phospho-ERM antibody (Invitrogen, cat # PR8975A). […] Aliquots (3.5 μL) of the 100% DMSO dose response were mixed with 46.5 μL water then 1 μL of this mixture was added to the 3 μL substrate mix in the 384-well plate. The kinase reaction was started with 3 μL of a working solution of LRRK2 enzyme at a concentration of 4 μg/mL. […] The reaction was allowed to progress at room temperature for two hours and then stopped with the addition of 7 μL of detection buffer (20 mM Tris pH 7.6, 0.01% NP-40, 0.02% NaN3, 6 mM EDTA with 2 nM terbium labeled anti-phospho-ERM).
All final concentrations of substrate ATP and enzyme were the same.

T1 sequence (Q5S007 970-2527 limits assumed): as the sequence (Q5S007 970-2527 G2019S limits assumed) above, with S1050G counted along it

Fc1ccc2ncc3nc(Cc4cscn4)n(C4CCOCC4)c3c2c1 [Example 77, 8-fluoro-1-(tetrahydro-2H-pyran-4-yl)-2-(1,3-thiazol-4-ylmethyl)-1H-imidazo[4,5-c]quinoline, trifluoroacetate salt]
IC50 [1]: 74.6 nM
IC50 (mutant G2019S LRRK2): 62.5 nM

Fc1ccc2ncc3nc(Cn4cc(C(F)(F)F)cn4)n(C4CCOCC4)c3c2c1 [Example 78, 8-fluoro-1-(tetrahydro-2H-pyran-4-yl)-2-{[4-(trifluoromethyl)-1H-pyrazol-1-yl]methyl}-1H-imidazo[4,5-c]quinoline, trifluoroacetate salt]
IC50 [1]: 145 nM
IC50 (mutant G2019S LRRK2): 115 nM

CC1(C)CC(n2c(Cn3cc(C4CC4)nn3)nc3cnc4ccc(F)cc4c32)CCO1 (stereo not shown) [Example 79, 2-[(4-cyclopropyl-1H-1,2,3-triazol-1-yl)methyl]-1-(2,2-dimethyltetrahydro-2H-pyran-4-yl)-8-fluoro-1H-imidazo[4,5-c]quinoline, trifluoroacetate salt]
IC50 [1]: 53.8 nM
IC50 (mutant G2019S LRRK2): 47.3 nM

CC1(C)CC(n2c(Cc3cscn3)nc3cnc4ccc(F)cc4c32)CCO1 (stereo not shown) [Example 80, 1-(2,2-dimethyltetrahydro-2H-pyran-4-yl)-8-fluoro-2-(1,3-thiazol-4-ylmethyl)-1H-imidazo[4,5-c]quinoline, trifluoroacetate salt]
IC50 [1]: 52.1 nM
IC50 (mutant G2019S LRRK2): 39.5 nM

CC1(C)CC(n2c(Cn3cc(C(F)(F)F)cn3)nc3cnc4ccc(F)cc4c32)CCO1 (stereo not shown) [Example 81, 1-(2,2-dimethyltetrahydro-2H-pyran-4-yl)-8-fluoro-2-{[4-(trifluoromethyl)-1H-pyrazol-1-yl]methyl}-1H-imidazo[4,5-c]quinoline, trifluoroacetate salt]
IC50 [1]: 159 nM
IC50 (mutant G2019S LRRK2): 121 nM

Fc1ccc2ncc3nc(Cc4cn5ncsc5n4)n(C4CCOCC4)c3c2c1 [Example 82, 8-fluoro-2-(imidazo[2,1-b][1,3,4]thiadiazol-6-ylmethyl)-1-(tetrahydro-2H-pyran-4-yl)-1H-imidazo[4,5-c]quinoline, trifluoroacetate salt]
IC50 [1]: 17.6 nM
IC50 (mutant G2019S LRRK2): 16.2 nM

Cc1nn2cc(Cc3nc4cnc5ccc(F)cc5c4n3C3CCOC(C)(C)C3)nc2s1 (stereo not shown) [Example 83, 1-(2,2-dimethyltetrahydro-2H-pyran-4-yl)-8-fluoro-2-[(2-methylimidazo[2,1-b][1,3,4]thiadiazol-6-yl)methyl]-1H-imidazo[4,5-c]quinoline, trifluoroacetate salt]
IC50 [1]: 25.4 nM
IC50 (mutant G2019S LRRK2): 21.2 nM

CC1(C)CC(n2c(Cc3ccon3)nc3cnc4ccc(F)cc4c32)CCO1 (stereo not shown) [Example 84, 1-(2,2-dimethyltetrahydro-2H-pyran-4-yl)-8-fluoro-2-(1,2-oxazol-3-ylmethyl)-1H-imidazo[4,5-c]quinoline, trifluoroacetate salt]
IC50 [1]: 31.4 nM
IC50 (mutant G2019S LRRK2): 24.9 nM

C[C@@H]1C[C@H](n2c(Cc3cscn3)nc3c(N)nc4ccc(Cl)cc4c32)CCO1 [Example 85, 8-chloro-1-[(2R,4R)-2-methyltetrahydro-2H-pyran-4-yl]-2-(1,3-thiazol-4-ylmethyl)-1H-imidazo[4,5-c]quinolin-4-amine, trifluoroacetate salt]
IC50 [1]: 12.3 nM
IC50 (mutant G2019S LRRK2): 10 nM

COc1ccc2ncc3nc(Cc4noc(C)n4)n([C@@H]4CCO[C@H](C)C4)c3c2c1 [Example 87, 8-methoxy-2-[(5-methyl-1,2,4-oxadiazol-3-yl)methyl]-1-[(2R,4R)-2-methyltetrahydro-2H-pyran-4-yl]-1H-imidazo[4,5-c]quinoline]
IC50 [1]: 111 nM
IC50 (mutant G2019S LRRK2): 38.8 nM

COc1ccc2ncc3nc(Cn4cc(C)nn4)n([C@@H]4CCO[C@H](C)C4)c3c2c1 [Example 88, 8-methoxy-1-[(2R,4R)-2-methyltetrahydro-2H-pyran-4-yl]-2-[(4-methyl-1H-1,2,3-triazol-1-yl)methyl]-1H-imidazo[4,5-c]quinoline]
IC50 [1]: 18 nM
IC50 (mutant G2019S LRRK2): 7.5 nM
